Experimental findings from US7179831B2, “5-[3-(4-benzyloxyphenylthio)-fur-2-yl]-imidazolidin-2, 4-dione and analogues as inhibitors of macrophage elastase” (Quest Pharmaceutical Services, priority 2004, dated 2007) are described below.

Common to all, as to type: biochemical
Conditions in all cases: recombinant human active domain, substrate 4 uM, room temperature

The target in experiment [1] is T1, MMP-12 (Homo sapiens, UniProt P39900).
T1 construct: All the enzymes are recombinant human active domains from E. coli (Biomol); purchased Biomol; host or cells: E. coli
T1 sequence (P39900 106-263 limits assumed): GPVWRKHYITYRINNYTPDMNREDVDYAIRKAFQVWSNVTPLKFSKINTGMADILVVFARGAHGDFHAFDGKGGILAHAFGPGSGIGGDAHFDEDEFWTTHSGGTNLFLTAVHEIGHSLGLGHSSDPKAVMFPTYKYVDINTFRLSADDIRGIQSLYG
Briefly: MMP inhibitory assay, fluorescent substrate, MMP-12. On the procedure:
(§1) The enzymatic activities of MMPs were assayed according to manufacture protocols (Biomol Reseaerch Laboratory, Inc. E-mail: info@biomol.com). All the enzymes are recombinant human active domains from E. coli (Biomol). The fluorescent substrate has the sequence of (7-methoxycoumarin-4-yl) acetyl-Pro-Leu-Gly-Leu-N-3-(2,4-dinitrophenyl)-L-α,β-diaminopropionyl-Ala-Arg-NH2.AcOH. All the assays were conducted at room temperature with 96 well flat bottom black plate (Nalge Nunc International, Catalog number, 465200). Briefly, certain amount of enzyme in 89 ul of assay buffer (50 mM Hepes, 10 mM CaCl2, 0.05% Brij 35, pH 7.5) was incubated with (7 concentration per set) or without inhibitor (in 1 ul of DMSO, or 1 ul DMSO only) for 20 min. Then the enzymatic reaction was initiated by the addition of the substrate (40 uM in 10 ul of assay buffer and the final concentration of the substrate is 4 uM). The activity was determined by measuring the fluorescence at Ex/Em=328 nm/393 nm and it was linear within 2 hrs. The fluorescence was read at 0 and 20 or 40 min. The reading at 0 time would be considered as the background and subtracted from the final reading. The IC50 was obtained by plotting the fluorescences versus the concentrations of the inhibitors of each assay with Prism software. […] Mechanism studies reveal that the inhibitors are competitive. For competitive inhibitor: Ki=IC50/(1+[S]/Km)
In the assay conditions, [S](4 uM) is smaller than Km (20 uM for MMP-12). So Ki equal to IC50/1.2, which is little smaller than IC50, or roughly equal to IC50.

Experiment [2] addresses T2, MMP-1 (Homo sapiens, UniProt P03956).
T2 construct: All the enzymes are recombinant human active domains from E. coli (Biomol); purchased Biomol; host or cells: E. coli
T2 sequence (P03956 100-269 limits assumed): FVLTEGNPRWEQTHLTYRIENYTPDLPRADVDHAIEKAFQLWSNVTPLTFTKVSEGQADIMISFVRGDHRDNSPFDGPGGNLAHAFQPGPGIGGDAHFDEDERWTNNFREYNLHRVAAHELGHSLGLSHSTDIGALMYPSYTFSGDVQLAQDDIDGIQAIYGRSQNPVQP
Briefly: MMP inhibitory assay, fluorescent substrate, MMP-1. On the procedure: as §1

Experiment [3] deals with T3, MMP-2 (Homo sapiens, UniProt P08253).
T3 construct: All the enzymes are recombinant human active domains from E. coli (Biomol); purchased Biomol; host or cells: E. coli
T3 sequence (P08253 110-446 limits assumed): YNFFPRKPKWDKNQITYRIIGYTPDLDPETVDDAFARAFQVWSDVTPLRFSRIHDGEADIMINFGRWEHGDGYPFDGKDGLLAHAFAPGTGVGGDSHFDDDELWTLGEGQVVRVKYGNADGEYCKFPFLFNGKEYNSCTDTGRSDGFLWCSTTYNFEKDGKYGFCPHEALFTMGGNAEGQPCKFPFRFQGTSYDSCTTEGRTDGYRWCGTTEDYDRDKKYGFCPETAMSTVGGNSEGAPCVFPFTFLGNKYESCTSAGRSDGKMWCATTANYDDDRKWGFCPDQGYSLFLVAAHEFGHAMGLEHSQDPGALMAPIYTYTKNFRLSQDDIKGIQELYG
The experiment in a line: MMP inhibitory assay, fluorescent substrate, MMP-2. On the procedure: as §1

The target of experiment [4] is T4, MMP-3 (Homo sapiens, UniProt P08254).
T4 construct: All the enzymes are recombinant human active domains from E. coli (Biomol); purchased Biomol; host or cells: E. coli
T4 sequence (P08254 100-272 limits assumed): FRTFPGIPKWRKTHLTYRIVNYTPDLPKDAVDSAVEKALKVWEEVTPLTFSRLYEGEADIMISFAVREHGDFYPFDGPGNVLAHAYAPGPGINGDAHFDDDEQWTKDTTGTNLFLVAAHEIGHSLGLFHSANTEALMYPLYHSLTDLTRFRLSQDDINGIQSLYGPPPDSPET
Briefly: MMP inhibitory assay, fluorescent substrate, MMP-3. On the procedure:
as §1

In experiment [5] the target is T5, MMP-9 (Homo sapiens, UniProt P14780).
T5 construct: All the enzymes are recombinant human active domains from E. coli (Biomol); purchased Biomol; host or cells: E. coli
T5 sequence (P14780 107-444 limits assumed): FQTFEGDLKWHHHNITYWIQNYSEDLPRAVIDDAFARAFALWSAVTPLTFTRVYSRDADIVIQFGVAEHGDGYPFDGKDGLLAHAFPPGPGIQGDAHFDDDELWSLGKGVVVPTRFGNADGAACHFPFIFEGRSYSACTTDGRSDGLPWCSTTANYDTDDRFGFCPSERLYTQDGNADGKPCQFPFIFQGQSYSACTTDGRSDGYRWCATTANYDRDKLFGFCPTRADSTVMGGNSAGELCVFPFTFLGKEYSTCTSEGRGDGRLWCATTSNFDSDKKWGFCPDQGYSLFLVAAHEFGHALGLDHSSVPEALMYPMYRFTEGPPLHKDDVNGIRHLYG
The experiment in a line: MMP inhibitory assay, fluorescent substrate, MMP-9. On the procedure:
as §1

Experiment [6] deals with T6, MMP-13 (Homo sapiens, UniProt P45452).
T6 construct: All the enzymes are recombinant human active domains from E. coli (Biomol); purchased Biomol; host or cells: E. coli
The experiment in a line: MMP inhibitory assay, fluorescent substrate, MMP-13. On the procedure:
as §1

Experiment [7] has as its target T7, MMP-7 (Homo sapiens, UniProt P09237).
T7 construct: All the enzymes are recombinant human active domains from E. coli (Biomol); purchased Biomol; host or cells: E. coli
T7 sequence (P09237 95-267): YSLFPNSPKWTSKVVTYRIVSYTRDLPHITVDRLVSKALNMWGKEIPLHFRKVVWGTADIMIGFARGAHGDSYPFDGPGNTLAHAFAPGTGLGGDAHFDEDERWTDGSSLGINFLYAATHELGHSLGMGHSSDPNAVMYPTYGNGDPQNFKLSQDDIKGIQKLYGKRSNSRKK
Briefly: MMP inhibitory assay, fluorescent substrate, MMP-7. On the procedure:
as §1

In the case of `O=C1NC(=O)C(c2occc2Sc2ccc(OCc3cccc(C(F)(F)F)c3)cc2)N1` (stereo not drawn) [IVq, 5-{3-[4-(3-Trifluoromethyl-benzyloxy)phenylthio]fur-2yl}imidazolidine-2,4-dione], the IC50 was 0.034 µM in experiment [1]; more than 40 µM in experiment [2]; 2.13 µM in experiment [3]; 3.31 µM in experiment [4]; 2.88 µM in experiment [5]; 2.06 µM in experiment [6].

`Cc1ccccc1COc1ccc(Sc2ccoc2C2NC(=O)NC2=O)cc1` (stereo not drawn) [IVp, 5-{3-[4-(2-Methyl-benzyloxy)phenylthio]fur-2-yl}imidazolidine-2,4-dione]: the IC50 is 0.042 µM in experiment [1]; more than 40 µM in experiment [2]; 7.03 µM in experiment [3]; 4.04 µM in experiment [4]; 2.08 µM in experiment [5]; 4.26 µM in experiment [6].

Consider `O=C1NC(=O)C(c2occc2Sc2ccc(OCc3ccc(Cl)cc3)cc2)N1` (stereo not drawn) [IVh, 5-{3-[4-(4-Chlorobenzyloxy)phenylthio]fur-2-yl}imidazolidine-2,4-dione], for which the IC50 is 0.007 µM in experiment [1]; more than 40 µM in experiment [2]; 0.235 µM in experiment [3]; 0.157 µM in experiment [4]; 7.45 µM in experiment [7]; 0.255 µM in experiment [5]. In addition, the IC50 in experiment [6] was determined as 0.329 µM.

On to `O=C1NC(=O)C(c2occc2Sc2ccc(OCc3ccccc3)cc2)N1` (stereo not drawn) [IVa, 5-[3-(4-Benzoxyphenylthio)fur-2-yl]imidazoline-2,4-dione], for which the IC50 was 0.013 µM in experiment [1]; more than 40 µM in experiment [2]; 0.447 µM in experiment [3]; 2.1 µM in experiment [4]; 63.7 µM in experiment [7]; 0.727 µM in experiment [5]. Moreover, the IC50 in experiment [6] was found to be 1.07 µM.

With `COc1ccccc1COc1ccc(Sc2ccoc2C2NC(=O)NC2=O)cc1` (stereo not drawn) [IVf, 5-{3-[4-(2-Methoxybenzyloxy)phenylthio]fur-2-yl}imidazolidine-2,4-dione], the IC50 is 0.202 µM in experiment [1]; more than 40 µM in experiment [2]; 233 µM in experiment [3]; 30.4 µM in experiment [5]; 11.6 µM in experiment [6].

Take `Cc1ccc(COc2ccc(Sc3ccoc3C3NC(=O)NC3=O)cc2)cc1` (stereo not drawn) [IVk, 5-{3-[4-(4-Methylbenzyloxy)phenylthio]fur-2-yl}imidazolidine-2,4-dione]: the IC50 in experiment [1] is 0.015 µM; in experiment [2] it was more than 40 µM; in experiment [3] it was 0.612 µM; in experiment [4], 0.586 µM; in experiment [7] it was 30.9 µM; in experiment [5], 0.472 µM. Further, the IC50 in experiment [6] is 0.643 µM.

For `O=C1NC(=O)C(c2occc2Sc2ccc(OCc3ccc(OCc4ccccc4)cc3)cc2)N1` (stereo not drawn) [IVb, 5-{3-[4-(4-Benzyloxybenzyloxy)phenylthio]fur-2-yl}imidazolidine-2,4-dione], the IC50 is 0.084 µM in experiment [1]; more than 40 µM in experiment [2]; 1.18 µM in experiment [3]; 0.383 µM in experiment [4]; 1.88 µM in experiment [7]; 4.47 µM in experiment [5]. Moreover, the IC50 in experiment [6] amounted to 0.335 µM.

Take `Cc1cccc(COc2ccc(Sc3ccoc3C3NC(=O)NC3=O)cc2)c1` (stereo not drawn) [IVo, 5-{3-[4-(3-Methyl-benzyloxy)phenylthio]fur-2-yl}imidazolidine-2,4-dione]: the IC50 in experiment [1] is 0.011 µM; in experiment [2], more than 40 µM; in experiment [3] it was 1.11 µM; in experiment [4], 1.35 µM; in experiment [7], 46.7 µM; in experiment [5], 2.95 µM. Besides, in experiment [6], the IC50 came out at 1.95 µM.

Turning to `O=C1NC(=O)C(c2occc2Sc2ccc(OCc3ccccc3Cl)cc2)N1` (stereo not drawn) [IVj, 5-{3-[4-(2-Chlorobenzyloxy)phenylthio]fur-2-yl}imidazolidine-2,4-dione], the IC50 is 0.057 µM in experiment [1]; more than 40 µM in experiment [2]; 1.84 µM in experiment [3]; 1.09 µM in experiment [4]; 1.13 µM in experiment [5]; 2.41 µM in experiment [6].

For `O=C1NC(=O)C(c2occc2Sc2ccc(OCc3ccc(-c4ccccc4)cc3)cc2)N1` (stereo not drawn) [IVc, 5-{3-[4-(4-biphenylmethoxy)phenylthio]fur-2-yl}imidazoline-2,4-dione], the IC50 in experiment [1] was 0.131 µM; in experiment [2], more than 40 µM; in experiment [3], 1.74 µM; in experiment [4] it was 35.9 µM; in experiment [7], 1.04 µM; in experiment [6], 0.707 µM.

Turning to `COc1ccc(COc2ccc(Sc3ccoc3C3NC(=O)NC3=O)cc2)cc1` (stereo not drawn) [IVd, 5-{3-[4-(4-Methoxybenzyloxy)phenylthio]fur-2-yl}imidazolidine-2,4-dione], the half-inhibitory concentration (IC50) in experiment [1] is 0.01 µM; in experiment [2], more than 40 µM; in experiment [3], 0.422 µM; in experiment [4] it was 0.318 µM; in experiment [7], 7.6 µM; in experiment [5], 0.74 µM. Also, the IC50 in experiment [6] is 0.26 µM.

For `COc1cccc(COc2ccc(Sc3ccoc3C3NC(=O)NC3=O)cc2)c1` (stereo not drawn) [IVe, 5-{3-[4-(3-Methoxybenzyloxy)phenylthio]fur-2-yl}imidazolidine-2,4-dione], the IC50 in experiment [1] is 0.019 µM; in experiment [2], more than 40 µM; in experiment [3], 2.01 µM; in experiment [4], 3.62 µM; in experiment [7], 27.4 µM; in experiment [5] it was 3.76 µM. Besides, the IC50 in experiment [6] was found to be 2.44 µM.

Regarding `O=C1NC(=O)C(c2occc2Sc2ccc(OCc3cccc(Cl)c3)cc2)N1` (stereo not drawn) [IVi, 5-{3-[4-(3-Chlorobenzyloxy)phenylthio]fur-2-yl}imidazolidine-2,4-dione], the IC50 in experiment [1] was 0.022 µM; in experiment [2] it was more than 40 µM; in experiment [3], 1.02 µM; in experiment [4] it was 0.298 µM; in experiment [7] it was 676 µM; in experiment [5], 1.44 µM. In addition, the IC50 in experiment [6] came out at 0.773 µM.

With `COc1cc(COc2ccc(Sc3ccoc3C3NC(=O)NC3=O)cc2)cc(OC)c1` (stereo not drawn) [IVg, 5-{3-[4-(3,5-dimethoxybenzoxy)phenylthio]fur-2yl}imidazoline-2,4-dione], the IC50 in experiment [1] was 0.264 µM; in experiment [2] it was more than 40 µM; in experiment [4] it was 7.95 µM; in experiment [5], 35.8 µM; in experiment [6], 16.8 µM.
